Drawing on ChEMBL document CHEMBL1124465, “Dynamics and thermodynamics of the counterion effect in a 7H-pyridocarbazole dimer (ditercalinium). Hypothesis of a nonbisintercalative binding mode to calf thymus DNA at high drug/base ratio” (J Med Chem, 1989), this text covers Ka for one compound.

Assay [1] has as its system Nucleic Acid. Briefly: Monointeraction into calf thymus DNA at pH 5. Format: nucleic-acid assay.
Assay [2] deals with Nucleic Acid. The assay can be described thus: Monointeraction into calf thymus DNA at pH 7.4. Format: nucleic-acid assay.

In the case of `COc1ccc2[nH]c3ccc4cc[n+](CCN5CCC(C6CCN(CC[n+]7ccc8ccc9[nH]c%10ccc(OC)cc%10c9c8c7)CC6)CC5)cc4c3c2c1`, the figures for the Ka in the assay on Nucleic Acid [1] and in the assay on Nucleic Acid [2] were 5e+08 M⁻¹ and 2e+07 M⁻¹, respectively.
